In patent US20250059180A1 (DONG WHA PHARM. CO., LTD., priority 2022, published 2025):
pIC50: −log10 of the molar value. Read-outs that look alike come from different tables or passages of the source.

Legend:
[1] = test system: Pfeiffer cells, lymphoma cells having EZH2 mutation (A677G); test: Proliferation inhibition of cells of hematologic malignancies (CCK-8, 11 days); format: cell-based; conditions: 11 days culture, read-out: Cell proliferation inhibitory effect (IC50)
How it was run: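 Pfeiffer lymphoma cells (EZH2 A677G) in RPMI1640 with 10% FBS were seeded at 10,000 cells/well and exposed to test material for 11 days, with compound replaced every 3–4 days. Viability was read by CCK-8 absorbance at 450 nm, and IC50 was derived by non-linear regression curve fitting.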

EZH1 = EZH1 (Homo sapiens, UniProt Q92800); test: AlphaLISA evaluation of inhibitory activity against EZH1; format: biochemical; conditions: DMSO control; for Enzyme inhibition % EZH1 5 nM: test material 5 nM; for Enzyme inhibition % EZH1 10 nM: test material 10 nM
EZH1, sequence (Q92800 whole entry): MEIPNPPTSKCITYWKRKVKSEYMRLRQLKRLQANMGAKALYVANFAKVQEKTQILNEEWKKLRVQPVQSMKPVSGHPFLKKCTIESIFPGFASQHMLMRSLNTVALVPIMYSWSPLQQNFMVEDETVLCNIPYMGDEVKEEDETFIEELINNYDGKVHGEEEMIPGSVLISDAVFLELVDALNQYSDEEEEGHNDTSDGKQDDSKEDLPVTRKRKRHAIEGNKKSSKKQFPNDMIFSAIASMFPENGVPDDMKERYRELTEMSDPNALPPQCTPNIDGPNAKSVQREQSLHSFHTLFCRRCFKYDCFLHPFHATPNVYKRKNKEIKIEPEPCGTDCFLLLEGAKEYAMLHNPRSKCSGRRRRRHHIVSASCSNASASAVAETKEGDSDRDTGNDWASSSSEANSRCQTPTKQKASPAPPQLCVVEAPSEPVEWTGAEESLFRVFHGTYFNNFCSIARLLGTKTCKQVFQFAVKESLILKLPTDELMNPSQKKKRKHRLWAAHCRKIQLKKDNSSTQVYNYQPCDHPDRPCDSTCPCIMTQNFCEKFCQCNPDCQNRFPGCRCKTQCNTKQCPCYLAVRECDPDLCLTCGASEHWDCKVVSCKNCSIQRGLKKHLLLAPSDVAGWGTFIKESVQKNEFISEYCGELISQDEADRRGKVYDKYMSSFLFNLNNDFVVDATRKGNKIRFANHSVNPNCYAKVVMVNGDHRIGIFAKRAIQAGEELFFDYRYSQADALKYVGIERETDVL
EZH1, sequence (O75530 whole entry partner): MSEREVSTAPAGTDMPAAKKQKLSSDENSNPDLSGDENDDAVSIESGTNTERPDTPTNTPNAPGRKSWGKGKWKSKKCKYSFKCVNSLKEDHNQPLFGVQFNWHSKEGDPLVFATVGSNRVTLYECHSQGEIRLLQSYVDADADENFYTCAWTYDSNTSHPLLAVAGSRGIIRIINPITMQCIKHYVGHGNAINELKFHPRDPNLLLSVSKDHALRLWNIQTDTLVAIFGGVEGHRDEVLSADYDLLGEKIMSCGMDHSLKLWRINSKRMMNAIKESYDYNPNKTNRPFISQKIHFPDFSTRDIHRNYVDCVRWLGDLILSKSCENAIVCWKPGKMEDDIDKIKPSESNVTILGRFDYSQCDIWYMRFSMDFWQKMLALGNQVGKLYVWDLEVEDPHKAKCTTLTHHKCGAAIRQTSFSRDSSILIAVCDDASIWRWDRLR
EZH1, sequence (Q15022 whole entry partner): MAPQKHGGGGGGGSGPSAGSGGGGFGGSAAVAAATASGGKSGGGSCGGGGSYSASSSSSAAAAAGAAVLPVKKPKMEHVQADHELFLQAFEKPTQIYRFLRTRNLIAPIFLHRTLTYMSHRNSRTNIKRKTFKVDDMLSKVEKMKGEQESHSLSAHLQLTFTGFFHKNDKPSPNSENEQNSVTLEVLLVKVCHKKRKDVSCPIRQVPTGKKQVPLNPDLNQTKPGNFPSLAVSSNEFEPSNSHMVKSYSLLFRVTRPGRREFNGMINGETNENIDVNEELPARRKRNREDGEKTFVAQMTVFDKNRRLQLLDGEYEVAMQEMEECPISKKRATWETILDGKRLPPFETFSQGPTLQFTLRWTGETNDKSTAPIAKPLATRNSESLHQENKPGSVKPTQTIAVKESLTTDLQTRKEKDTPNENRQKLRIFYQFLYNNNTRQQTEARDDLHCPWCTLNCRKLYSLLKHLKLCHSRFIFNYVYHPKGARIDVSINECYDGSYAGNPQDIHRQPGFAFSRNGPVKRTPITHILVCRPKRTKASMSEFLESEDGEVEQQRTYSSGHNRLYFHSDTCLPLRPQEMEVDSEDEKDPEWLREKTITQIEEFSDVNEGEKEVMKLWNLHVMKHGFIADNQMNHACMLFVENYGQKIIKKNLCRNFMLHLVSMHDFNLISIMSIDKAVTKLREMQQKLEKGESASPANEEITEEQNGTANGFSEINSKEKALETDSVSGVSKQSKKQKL
Experimental: (§1) In order to confirm the EZH1 and/or EZH2 activity inhibitory effect of the 1,3-benzodioxole derivative compounds represented by chemical formula I of the present invention, the activity was measured using an AlphaLISA test method.
(§2) The test material dissolved in dimethylsulfoxide (DMSO) was diluted in a test solution (20 mM Tris pH 8.0, 0.1% BSA, 0.01% Triton X-100, 0.5 mM DTT) according to a final treatment concentration (5 nM or 10 nM), mixed with EZH1 and EZH2, respectively, and then added with histone H3 peptide and S-adenosylmethionine (SAM) to initiate an enzyme reaction. An acceptor bead was added thereto after reaction for two hours and subjected to an additional reaction for one hour, after which a donor bead was added thereto. After an additional reaction for 30 minutes, the reaction was completed. Activity was measured using the Magellan program on a Spark10M instrument. DMSO was used as a control group, an inhibition rate of enzyme activity was calculated using the following equation, and the results thereof are shown in Table 1 below.
(§3) Activity inhibition rate (%)=(1−(Group treated with test material/Control group))*100

EZH2 = EZH2 (Homo sapiens, UniProt Q15910); test: AlphaLISA evaluation of inhibitory activity against EZH2; format: biochemical; conditions: DMSO control; for Enzyme inhibition % EZH2 5 nM: test material 5 nM; for Enzyme inhibition % EZH2 10 nM: test material 10 nM
EZH2, sequence (Q15910 whole entry): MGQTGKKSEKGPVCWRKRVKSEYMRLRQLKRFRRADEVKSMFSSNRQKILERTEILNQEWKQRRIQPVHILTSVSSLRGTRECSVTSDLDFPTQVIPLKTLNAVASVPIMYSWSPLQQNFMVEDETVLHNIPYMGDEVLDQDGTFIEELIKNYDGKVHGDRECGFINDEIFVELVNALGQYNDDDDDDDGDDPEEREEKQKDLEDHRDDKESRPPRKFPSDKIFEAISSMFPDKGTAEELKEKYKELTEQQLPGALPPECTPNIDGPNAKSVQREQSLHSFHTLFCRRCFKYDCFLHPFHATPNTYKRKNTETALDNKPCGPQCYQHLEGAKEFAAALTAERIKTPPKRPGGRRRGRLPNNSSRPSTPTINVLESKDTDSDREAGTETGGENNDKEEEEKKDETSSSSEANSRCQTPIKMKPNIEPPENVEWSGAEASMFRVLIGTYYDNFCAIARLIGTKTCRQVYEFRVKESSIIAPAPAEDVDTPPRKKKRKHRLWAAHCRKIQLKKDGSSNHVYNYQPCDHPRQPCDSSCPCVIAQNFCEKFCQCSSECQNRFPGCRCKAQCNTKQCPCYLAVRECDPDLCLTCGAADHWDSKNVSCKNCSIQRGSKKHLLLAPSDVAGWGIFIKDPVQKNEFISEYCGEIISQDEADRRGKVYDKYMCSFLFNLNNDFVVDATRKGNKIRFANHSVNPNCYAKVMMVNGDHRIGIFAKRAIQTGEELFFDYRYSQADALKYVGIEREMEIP
EZH2, sequence (O75530 whole entry partner): as the sequence (O75530 whole entry partner) above
EZH2, sequence (Q15022 whole entry partner): as the sequence (Q15022 whole entry partner) above
Experimental: as §1, §2, §3

pIC50 [1] | Enzyme inhibition % EZH1 5 nM (EZH1) | Enzyme inhibition % EZH1 10 nM (EZH1) | Enzyme inhibition % EZH2 5 nM (EZH2) | Enzyme inhibition % EZH2 10 nM (EZH2) | pIC50 ([1]; Homo sapiens, Pfeiffer, 264 h) | Structure (SMILES)
≥ 8.00 | 71.9% | 87.9% | 98.2% | 99.6% |  | CSc1cc(C)[nH]c(=O)c1CNC(=O)c1cc(-c2cnc(N3CCOCC3)nc2)c2c(c1C)OC(C)(C1CCN(CC(F)(F)F)CC1)O2 (centres unmarked) [Compound 69, 2,4-dimethyl-N-((6-methyl-4-(methylthio)-2-oxo-1,2-dihydropyridin-3-yl)methyl)-7-(2-morpholinopyrimidin-5-yl)-2-(1-(2,2,2-trifluoro)piperidin-4-yl)benzo[d][1,3]dioxole-5-carboxamide]
≥ 8.00 | 66.9% | 81.8% | 93.6% | 99.4% |  | CSc1cc(C)[nH]c(=O)c1CNC(=O)c1cc(-c2ccc(N3CCOCC3)nc2)c2c(c1C)OC(C)(C1CCN(CC(F)(F)F)CC1)O2 (centres unmarked) [Compound 62, 2,4-dimethyl-N-((6-methyl-4-(methylthio)-2-oxo-1,2-dihydropyridin-3-yl)methyl)-7-(6-morpholinopyridin-3-yl)-2-(1-(2,2,2-trifluoro)piperidin-4-yl)benzo[d][1,3]dioxole-5-carboxamide]
 |  | 19.9% | 37.0% | 82.6% | ≥ 8.00 | CSc1cc(C)[nH]c(=O)c1CNC(=O)c1cc(-c2ccc(N3C[C@@H](C)O[C@@H](C)C3)nc2)c2c(c1C)OC(C)([C@H]1CC[C@H](N3CC(OCCCC(F)(F)F)C3)CC1)O2 (some centres unmarked) [Compound 104]
